Results as given in publication PMC3522636, “4F Decreases IRF5 Expression and Activation in Hearts of Tight Skin Mice” (PLoS ONE, 2012).
“Also recorded” adds a separate entry of the source.

How the values were obtained:
Tsk−/+ hearts = experiment: TUNEL assay, apoptotic cells in heart sections; format: in vivo, mouse; conditions: 4F 1 mg/kg/d, sc; 4F-treated vs untreated Tsk−/+ hearts
Source text: (§1) All experimental procedures and protocols involving mice were reviewed and approved by the Institutional Animal Care and Use Committee (IACUC) of the Medical College of Wisconsin (AUA#512). They also conformed to the rules in the Guiding Principles in the Care and Use of Animals published by the American Physiologic Society and the Guide for the Care and Use of Laboratory Animals published by OLAW. Male Tsk^−/+ and C57Bl/6J mice (6–8 weeks of age) were purchased from Jackson Laboratories (Bar Harbor, ME). Three groups of mice were studied; C57Bl/6J, Tsk^−/+, and Tsk^−/+ mice treated with 4F (1 mg/kg/d, sc) as published previously.
Hearts were harvested from mice, flash frozen and imbedded in OCT and cut into 10 µm sections. A TUNEL assay was performed on the sections using an ApopTag Plus Fluorescein labeled kit (Millipore, Billerica, MA, Cat# S7111) as per the manufacturer’s instructions. Briefly, the free 3'OH DNA termini were labeled in situ with an anti-digoxigenin antibody conjugated to fluorescein. Nuclei were stained with TO-PRO 3™ for 3 minutes (1 µg/ml, Invitrogen). Slides were mounted and analyzed by confocal microscopy (Nikon Eclipse TE2000-U, EZ-C1-2 10 software, Nikon, Melville, NY). Images were captured using 488 nm excitation for fluorescein and 633 nm for nuclear labeling. Intensity was measured using Nikon Element imaging software (Nikon).

Tsk−/+ mice = experiment: Transthoracic echocardiography, posterior wall thickness / heart function; format: in vivo, mouse
Source text: as §1
Tsk^−/+ and C57BL/6J mice (n = 6) were anesthetized by isoflurane inhalation (1.50%) and oxygen. They were place on a warming platform supine position. A VisualSonics Vevo 770 high-resolution imaging system (Toronto, Canada) equipped with a 30-MHz transducer (Scanhead RMV 707) was used to perform the transthoracic echocardiography. Two-dimensional guided M-mode LV dimensions were measured and posterior wall thickness was analyzed.

IRF5 [1] = biological target: T1, IRF5 (Homo sapiens, UniProt Q13568); experiment: B-4F pulldown assay from EC cytosolic fractions spiked with recombinant IRF5; format: binding; conditions: 3 hours at 4°C, SA agarose beads overnight at 4°C; immunoblot
T1 construct: purchased GenScript USA Inc
T1 sequence (Q13568 1-498): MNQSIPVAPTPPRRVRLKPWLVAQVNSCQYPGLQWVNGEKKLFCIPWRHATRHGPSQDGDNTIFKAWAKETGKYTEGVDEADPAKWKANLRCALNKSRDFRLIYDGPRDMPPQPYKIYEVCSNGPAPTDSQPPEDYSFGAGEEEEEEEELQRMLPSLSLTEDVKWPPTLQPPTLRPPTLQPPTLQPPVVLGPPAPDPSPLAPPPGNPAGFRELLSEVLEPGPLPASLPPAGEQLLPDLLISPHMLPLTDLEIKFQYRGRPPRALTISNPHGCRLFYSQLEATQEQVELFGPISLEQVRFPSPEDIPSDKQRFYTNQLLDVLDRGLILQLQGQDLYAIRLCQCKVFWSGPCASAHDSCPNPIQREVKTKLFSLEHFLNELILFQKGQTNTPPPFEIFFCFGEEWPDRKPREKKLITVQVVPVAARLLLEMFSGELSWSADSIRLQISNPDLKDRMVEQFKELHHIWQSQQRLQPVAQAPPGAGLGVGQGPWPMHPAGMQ
Protocol: B-4F Pulldown Assays: To determine whether 4F interacts with IRF5 in the presence of cystosol proteins, we performed 4F pulldown assays on EC cytosolic fractions spiked with recombinant IRF5. Briefly, cytosolic EC fractions were precleared with SA agarose beads (Cat#15942-050, Invitrogen) for 30 minutes at 4°C. IRF5 interactions were enhanced by adding recombinant IRF5 (2% wt/vol, Genscript USA Inc.) to the endothelial cytosolic fractions. 4F and B-4F were added to the cytosolic fractions and incubated for 3 hours at 4°C. SA agarose beads were added and the samples mixed end-over-end overnight at 4°C. The following day the SA agarose beads were isolated by centrifugation. The proteins associated with B-4F were released from the beads with Laemmli buffer and separated by SDS-PAGE (4–15%) as above. IRF5 levels in the pulldown samples were determined by autoradiography of immunoblots as above.

IRF5 [2] = experiment: IRF5 positive nuclei, immunofluorescence of heart sections; format: in vivo, mouse; conditions: 4F 1 mg/kg/d, sc; Tsk−/+ heart sections, confocal; ratio IRF5 labeled nuclei to total nuclei; p<0.05, n = 3
Source text: as §1
Hearts were harvested from mice, flash frozen and imbedded in OCT and cut into 10 µm sections. Frozen sections were fixed for 10 minutes in PBS containing 1% paraformaldehyde. Cell membranes were permeabilized by incubation in PBS containing 0.5% Triton-X for 5 min at room temperature. The sections were washed once in PBS (5 min) and incubated in PBS containing mouse monoclonal anti-IRF5 antibody (Santa Cruz, 1∶50 concentration) for 30 min at 37°C. Unbound anti-IRF5 antibody was washed free from the sections with PBS and the slides incubated with the appropriate Alexa 488-conjugated secondary antibody (Invitrogen, Carlsbad, CA) for 30 min at 37°C. […] Sections were mounted in aqueous mounting media and analyzed by confocal microscopy, [17].

TNFα, Il-6, and Il-1 = conditions: cited from earlier work
Source text: The purpose of this study was to investigate an alternative mechanism for 4F decreasing myocardial inflammation in Tsk^−/+mice. While our previous report focused on 4F’s ability to decrease inflammation by improving HDL function, the current study determines the effects of 4F on IRF5. We chose to investigate this potential mechanism for two important reasons. […] These inflammatory mediators are all gene products of IRF5 [9], [29]. Second, genetic links between IRF5 and SSc have been ide ...

proinflammatory HDL = conditions: cited from earlier work
Source text: Scleroderma is an autoimmune disease that is characterized by marked increases in fibrosis of the skin and internal organs in conjunction with enhanced apoptosis. The tight skin (Tsk^−/+) mouse is a murine model of systemic scleroderma that replicates many of the features observed in patients suffering from this disease.

Ac-DWFKAFYDKVAEKFKEAF-NH2 [4F]
TUNEL positive (apoptotic) cells (Tsk−/+ hearts): decreased both measurements in Tsk^−/+ hearts; also recorded: significantly decreased the number of TUNEL positive cells in Tsk^−/+ hearts compared to the number in untreated Tsk^−/+ hearts but not to the level of TUNEL positive cells in C57Bl/6J hearts; also recorded: increased compared with the levels in the hearts of C57BL/6J mice and hearts from 4F-treated Tsk^−/+ mice; also recorded: fewer apoptotic cells than hearts from untreated Tsk^−/+ mice
posterior wall thickness (Tsk−/+ mice; 4F 1 mg/kg/d, sc, 6–8 weeks, 4F-treated Tsk−/+ vs untreated Tsk−/+ mice, p<0.05, n = 6, M-mode echocardiography, isoflurane): significantly increased in Tsk^−/+ compared to C57Bl/6J (control) and Tsk^−/+ mice with 4F treatment; also recorded: significantly higher in the Tsk^−/+ mice compared to C57Bl/6J and Tsk^−/+ mice treated with 4F; also recorded: significantly improved
onset of heart failure (Tsk−/+ mice; 4F treatment of Tsk−/+ mice (Figure 1)): appear to delay the onset of heart failure in Tsk^−/+ mice
association with IRF5 in presence of EC cytosolic proteins (in words) (IRF5 [1]): strong enough to pull down IRF5 from a mixture of endothelial cell cytosolic proteins; also recorded: this interaction exists even in the presence of EC cytosolic proteins
IRF5 nuclear localization / IRF5 positive nuclei (IRF5 [2]): decreased both measurements in Tsk^−/+ hearts; also recorded: marked decreases in IRF-5 nuclear localization; also recorded: significantly more nuclear labeling in Tsk^−/+ hearts compared to C57BL/6J hearts and hearts from Tsk^−/+ mice treated with 4F; also recorded: decrease IRF5 expression, activation, nuclear translocation
expression of TNFα, Il-6, and Il-1 (TNFα, Il-6, and Il-1): decreases expression of TNFα, Il-6, and Il-1
proinflammatory HDL levels (proinflammatory HDL): decrease proinflammatory HDL levels
